Consider 39 compounds from ChEMBL document CHEMBL4483862, “Open-source discovery of chemical leads for next-generation chemoprotective antimalarials” (2018).

The test system of this assay is Plasmodium berghei. As to the kind of experiment: Luciferase/luciferin-expressing antifolate-resistant parasites were used to infect a culture of HepG2 cells that were pre-incubated with compounds. Infected hepatocytes emit light due to the luciferase reaction. Assay results are presented as the percent inhibition of light emission compared to control. […]. It is filed as functional. Particulars: sporozoite; for IC90: read-out: LUCIFERASE INFECTION ASSAY - IC90.

The mark [1] stands for this setting: read-out: LUCIFERASE INFECTION ASSAY - IC50.

Some results are limits rather than exact numbers.

By IC50 is commonly meant the midpoint of a concentration-inhibition curve. What is called IC90 is the concentration at which the effect reaches the 90% level. Regarding `CNC(=O)c1ccc(CN(C2CC2)S(=O)(=O)c2ccc(C)cc2C)cc1`, the IC90 is 8.11 µM. Moreover, the IC50 (PBLUC_HILL_SLOPE 2.19, PBLUC_R_SQUARED 0.255, read-out: LUCIFERASE INFECTION ASSAY - IC50) came to 2.97 µM.
As for `Cc1cc(C)c(N2C(=O)C=CC2=O)c(C)c1`, the IC90 was determined as 13.1 µM. Also, under “FFLUC_HILL_SLOPE 3.47, FFLUC_R_SQUARED 0.6, PBLUC_HILL_SLOPE 4.24, PBLUC_R_SQUARED 0.739, read-out: LUCIFERASE INFECTION ASSAY - IC50”, the half-inhibitory concentration (IC50) worked out at 7.79 µM.
Consider `COc1ccc(-c2nn(-c3ccccc3)cc2/C=N/Nc2ncc(C(F)(F)F)cc2Cl)cc1OC`, for which the IC90 stood at 2.33 µM. Also, the IC50 (HEPG2TOX_HILL_SLOPE 13.4, HEPG2TOX_R_SQUARED 0.529, PBLUC_HILL_SLOPE 3.64, PBLUC_R_SQUARED 0.734, read-out: LUCIFERASE INFECTION ASSAY - IC50) is 1.27 µM.
With `Cc1cccc(C)c1-n1nnnc1Sc1nc(CN2CCOCC2)nc2sc(C)c(C)c12`, the 90% effect concentration (IC90) is above 10 µM. Besides, for the setting “HEPG2TOX_HILL_SLOPE 14.5, 28.4, HEPG2TOX_R_SQUARED 0.890, 0.649, PBLUC_HILL_SLOPE 85.3, 7.09, PBLUC_R_SQUARED 0.147, 0.386, read-out: LUCIFERASE INFECTION ASSAY - IC50”, the IC50 worked out at 8.67 µM.
As to `CCOC(=O)NC1=C/C(=N\S(=O)(=O)c2ccc(C)cc2)c2ccccc2C1=O`, the IC90 is above 10 µM. In addition, the IC50 (HEPG2TOX_HILL_SLOPE 8.17, HEPG2TOX_R_SQUARED 0.938, PBLUC_HILL_SLOPE 4.13, PBLUC_R_SQUARED 0.0669, read-out: LUCIFERASE INFECTION ASSAY - IC50) is above 10 µM.
Take `CN(c1ccccc1)c1ccc(/C=N/NC(=O)c2ccc3c(=O)n4c(nc3c2)CCCCC4)cc1`: the IC90 is above 10 µM. Also, the IC50 (PBLUC_HILL_SLOPE 3.8, PBLUC_R_SQUARED 0.483, read-out: LUCIFERASE INFECTION ASSAY - IC50) was 6.28 µM.
In the case of `O=[N+]([O-])c1ccc(Oc2c(Cl)cc(S(=O)(=O)N3CCCCC3)cc2Cl)c(Cl)c1`, the concentration for an effect of 90% (IC90) was above 7.09 µM. Besides, where the note is “PBLUC_HILL_SLOPE 7.39, PBLUC_R_SQUARED 0.0349, read-out: LUCIFERASE INFECTION ASSAY - IC50”, the IC50 is above 7.09 µM.
Consider `CCOC(=O)c1c(C2CC2)csc1NC(=O)COC(=O)c1cc(C)n(-c2cc(Cl)ccc2OC)c1C`, for which the IC90 is above 10 µM. Besides, the IC50 (FFLUC_HILL_SLOPE 35.2, FFLUC_R_SQUARED 0.269, read-out: LUCIFERASE INFECTION ASSAY - IC50) was above 10 µM.
With `Cn1c(N)c(C(=O)CSc2nc(-c3ccccc3)c(-c3ccccc3)o2)c(=O)n(C)c1=O`, the IC90 is above 10 µM. For the same compound, the IC50 (HEPG2TOX_HILL_SLOPE 1.35, HEPG2TOX_R_SQUARED 0.367, PBLUC_HILL_SLOPE 15.8, PBLUC_R_SQUARED 0.143, read-out: LUCIFERASE INFECTION ASSAY - IC50) was 9 µM.
As to `O=C(Nc1ccc(Cl)c(Cl)c1)Nc1c(-c2ccccc2)nc2ccccn12`, the 90% effect concentration (IC90) is 4.52 µM. The IC50 (HEPG2TOX_HILL_SLOPE 7.35, HEPG2TOX_R_SQUARED 0.457, PBLUC_HILL_SLOPE 10, PBLUC_R_SQUARED 0.727, read-out: LUCIFERASE INFECTION ASSAY - IC50) was 3.63 µM.
For `N#C/C(=C\c1sc(N2CCCCC2)nc1-c1ccccc1)c1nnc2n1CCCCC2`, the 90% effect concentration (IC90) was above 10 µM. For the same compound, under setting [1], the 50% inhibitory concentration (IC50) was above 10 µM.
Turning to `COc1ccc(S(=O)(=O)N2CCc3ccccc32)cc1C(=O)NOCc1ccccc1`, the IC90 was above 10 µM. The IC50 under setting [1] was above 10 µM.
In the case of `O=c1[nH]c2ccc(NCc3cc(Cl)ccc3OCc3ccc(F)cc3)cc2[nH]1`, the concentration for an effect of 90% (IC90) was above 8.29 µM. For the same compound, under setting [1], the IC50 is above 8.29 µM.
Turning to `CC(C)S(=O)(=O)c1csc(NC(=O)Nc2ccc(Cl)cc2)c1`, the IC90 was 3.33 µM. In addition, the IC50 (PBLUC_HILL_SLOPE 17.2, PBLUC_R_SQUARED 0.385, read-out: LUCIFERASE INFECTION ASSAY - IC50) turned out to be 2.93 µM.
As for `COc1ccc(-c2cnc3ccc(-c4cccc(OC(F)(F)F)c4)nn23)cc1OC`, the IC90 came to 1.23 µM. Further, for the setting “FFLUC_HILL_SLOPE 21.1, FFLUC_R_SQUARED 0.421, PBLUC_HILL_SLOPE 16.1, PBLUC_R_SQUARED 0.675, read-out: LUCIFERASE INFECTION ASSAY - IC50”, the IC50 was determined as 1.08 µM.
In the case of `COC(=O)c1sc2nccnc2c1N`, the IC90 was above 15.8 µM. The IC50 under setting [1] was above 15.8 µM.
For `Cc1ccc(NC(=O)CN2CCN(Cc3c(O)ccc4ccncc34)CC2)cc1`, the IC90 was above 10 µM. In addition, the IC50 under setting [1] was above 10 µM.
With `O=C(NNc1cccc(F)n1)C(F)(F)F`, the IC90 came to 0.37 µM. The IC50 (PBLUC_HILL_SLOPE 2.9, PBLUC_R_SQUARED 0.705, read-out: LUCIFERASE INFECTION ASSAY - IC50) was 0.174 µM.
Consider `Cc1ccc(-c2noc(CCCN3CCN(C(=O)Cn4cnc5c(C)cccc5c4=O)CC3)n2)cc1`, for which the IC90 is above 10 µM. For the same compound, the IC50 under setting [1] was above 10 µM.
`CC(C)n1ncc2cc(C(=O)Nc3nnc(-c4ccccn4)[nH]3)cnc21`: the IC90 was above 10 µM. Also, for the setting “PBLUC_HILL_SLOPE 1.86, PBLUC_R_SQUARED 0.0303, read-out: LUCIFERASE INFECTION ASSAY - IC50”, the IC50 was 6.07 µM.
Regarding `COc1cccc(C(CNc2nc(C)nc3sc4c(c23)CCCCC4)N2CCCC2)c1` (stereo not drawn), the IC90 is above 10 µM. For the same compound, the IC50 under setting [1] was above 10 µM.
Take `N#C/C(=N/Nc1ccc(OC(F)(F)F)cc1)C(N)=S`: the IC90 is 4.35 µM. In addition, the IC50 (HEPG2TOX_HILL_SLOPE 2.59, HEPG2TOX_R_SQUARED 0.943, PBLUC_HILL_SLOPE 11.1, PBLUC_R_SQUARED 0.624, read-out: LUCIFERASE INFECTION ASSAY - IC50) was determined as 3.57 µM.
For the compound `O=C(CCc1cccnc1)Nc1ccc(OC(F)(F)F)cc1`, the IC90 is above 10 µM. For the same compound, the IC50 under setting [1] is above 10 µM.
Turning to `O=C(Nc1ccccc1)c1ccccc1OCC(O)COCc1ccc(Cl)cc1` (stereo not drawn), the IC90 was above 10 µM. For the same compound, under setting [1], the IC50 was above 10 µM.
Consider `Cc1ccc(-c2csc(NC(=O)CSc3nc4ccccc4c(=O)n3CCCN(C)C)n2)cc1`, for which the IC90 is above 10 µM. For the same compound, the half-inhibitory concentration (IC50) under setting [1] is above 10 µM.
With `CCc1ccc(-c2nc(C(=O)Nn3cn[nH]c3=S)cs2)cc1`, the concentration for an effect of 90% (IC90) was above 10 µM. Also, the IC50 (PBLUC_HILL_SLOPE 3.31, PBLUC_R_SQUARED 0.251, read-out: LUCIFERASE INFECTION ASSAY - IC50) is 5.44 µM.
Regarding `O=C(COC(=O)c1c2c(nc3ccccc13)CCCC2)Nc1ccccc1`, the IC90 was above 10 µM. Moreover, the IC50 (HEPG2TOX_HILL_SLOPE 0.267, HEPG2TOX_R_SQUARED 0.55, read-out: LUCIFERASE INFECTION ASSAY - IC50) was above 10 µM.
For `Cc1ccc(NC(=O)c2cccc(-c3ccc(O)cc3)c2)cc1Cl`, the IC90 stood at 4.26 µM. For the same compound, the IC50 (HEPG2TOX_HILL_SLOPE 17.8, HEPG2TOX_R_SQUARED 0.895, PBLUC_HILL_SLOPE 28.1, PBLUC_R_SQUARED 0.516, read-out: LUCIFERASE INFECTION ASSAY - IC50) stood at 3.94 µM.
As to `Cc1[nH]c(=S)c(C#N)c2c1C1(C)CCC3C(CC=C4CC(O)CCC43C)C1C2` (stereo not drawn), the IC90 was above 10 µM. For the same compound, under setting [1], the IC50 is above 10 µM.
As for `Cc1cc(C2=NNC(=NC(C)(C)C)SC2)c(C)n1-c1ccccc1`, the IC90 is above 10 µM. The IC50 (FFLUC_HILL_SLOPE 3.44, FFLUC_R_SQUARED 0.101, read-out: LUCIFERASE INFECTION ASSAY - IC50) was above 10 µM.
Take `CCCNC(=O)c1c(NC(=O)c2ccc(F)cc2F)nc2ccccn12`: the IC90 amounted to 8.71 µM. Further, where the note is “HEPG2TOX_HILL_SLOPE 7.34, HEPG2TOX_R_SQUARED 0.716, PBLUC_HILL_SLOPE 2.53, PBLUC_R_SQUARED 0.731, read-out: LUCIFERASE INFECTION ASSAY - IC50”, the IC50 was 3.66 µM.
Consider `Cc1cc(C(=O)Oc2ccccc2C(N)=O)c(C)n1Cc1ccco1`, for which the IC90 is 1.27 µM. Further, the IC50 (PBLUC_HILL_SLOPE 14.9, PBLUC_R_SQUARED 0.682, read-out: LUCIFERASE INFECTION ASSAY - IC50) was 1.09 µM.
`O=C(N/N=C/c1ccc(N2CCOCC2)s1)c1ccc(COc2cccc3cccnc23)cc1`: the IC90 was above 10 µM. The IC50 (HEPG2TOX_HILL_SLOPE 12.5, HEPG2TOX_R_SQUARED 0.767, PBLUC_HILL_SLOPE 2.46, PBLUC_R_SQUARED 0.528, read-out: LUCIFERASE INFECTION ASSAY - IC50) was 5.64 µM.
As to `O=C(COC(=O)c1ccccc1NCCO)NC(=O)NCc1ccco1`, the IC90 is above 10 µM. Besides, the IC50 under setting [1] is above 10 µM.
For `COc1cc2c(cc1NC(=O)Cn1cnc(C#N)n1)oc1ccccc12`, the IC90 is above 10 µM. Also, the IC50 (HEPG2TOX_HILL_SLOPE 16.6, HEPG2TOX_R_SQUARED 0.479, read-out: LUCIFERASE INFECTION ASSAY - IC50) was above 10 µM.
In the case of `COc1cc(C(=O)Nc2ccc(Cn3cncn3)cc2)ccc1Oc1ccc(Cl)cc1[N+](=O)[O-]`, the 90% effect concentration (IC90) is 6.19 µM. Besides, the IC50 (PBLUC_HILL_SLOPE 72.9, PBLUC_R_SQUARED 0.579, read-out: LUCIFERASE INFECTION ASSAY - IC50) stood at 6.01 µM.
On to `C[C@]12CCC3C(CC[C@]4(O)C[C@@H](O)CC[C@]34/C=N/O)[C@@]1(O)CC[C@@H]2C1=CC(=O)OC1` (stereo partly drawn), for which the IC90 was found to be 0.165 µM. Further, the IC50 (HEPG2TOX_HILL_SLOPE 2.86, HEPG2TOX_R_SQUARED 0.935, PBLUC_HILL_SLOPE 2.2, PBLUC_R_SQUARED 0.866, read-out: LUCIFERASE INFECTION ASSAY - IC50) came to 0.0609 µM.
For `CCOC(=O)C1(C)CCCCN1C(=O)c1ccc(C(=O)OC)cc1` (stereo not drawn), the 90% effect concentration (IC90) is above 9.9 µM. Under setting [1], the IC50 was above 9.9 µM.
`CC1CSC(N(C(=O)COc2ccccc2F)c2ccc(Cl)cc2)=N1` (stereo not drawn): the IC90 is above 10 µM. Also, the half-maximal inhibitory concentration (IC50) under setting [1] is above 10 µM.
